# Columns and labels:
# Experiment in all cases: Histone peptide microarray
# Assay type in all cases: binding, human
# Conditions in all cases: each array performed twice, total n = 4
# AIRE (PP) = system: AIRE (PP)
# Outline: (§1)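 Binding read as mean relative signal from 4 replicates; microarray held 293 synthetic histone peptides with single or combinatorial PTMs. Each GST-tagged PHD reader was applied at 0.5 μM using the optimized Petell protocol.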
# BAZ2B = system: BAZ2B
# Outline: as §1
# BPTF (PB) = system: BPTF (PB)
# Outline: as §1
# CHD4 (PPCC) = system: CHD4 (PPCC)
# Outline: as §1
# CHD5 (PCC) = system: CHD5 (PCC)
# Outline: as §1
# CHD5 (PPCC) = system: CHD5 (PPCC)
# Outline: as §1
# DIDO1 = system: DIDO1
# Outline: as §1
# DPF2 (PPC2W2) = system: DPF2 (PPC2W2)
# Outline: as §1
# ING1 = system: ING1
# Outline: as §1
# ING2 = system: ING2
# Outline: as §1
# ING3 = system: ING3
# Outline: as §1
# ING4 = system: ING4
# Outline: as §1
# ING5 = system: ING5
# Outline: as §1
# KDM4C (TTP) = system: KDM4C (TTP)
# Outline: as §1
# KDM5A (1) = system: KDM5A (1)
# Outline: as §1
# KDM5A (3) = system: KDM5A (3)
# Outline: as §1
# KDM5B (1) = system: KDM5B (1)
# Outline: as §1
# KDM5B (3) = system: KDM5B (3)
# Outline: as §1
# KDM7A = system: KDM7A
# Outline: as §1
# MLL5 = system: MLL5
# Outline: as §1
# MORC3 (CW) = system: MORC3 (CW)
# Outline: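 A peptide microarray holding 293 synthetic histone peptides with individual or combinatorial modifications was probed with each GST-PHD protein at 0.5 μM. Values represent mean intensity (±SD) from four replicates.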
# PHF13 = system: PHF13
# Outline: as §1
# PHF21A = system: PHF21A
# Outline: as §1
# PHF23 = system: PHF23
# Outline: as §1
# PHF2 = system: PHF2
# Outline: as §1
# PHF8 = system: PHF8
# Outline: as §1
# PHRF1 (RP) = system: PHRF1 (RP)
# Outline: as §1
# RAG2 = system: RAG2
# Outline: as §1
# SP140L = system: SP140L
# Outline: as §1
# TAF3 = system: TAF3
# Outline: as §1
# TRIM66 (PB) = system: TRIM66 (PB)
# Outline: as §1
substance,measurement,setting,value
H3K4ac: H3 1-20 [Peptide H3K4ac],Array Heatmap signal (histone peptide microarray),"AIRE (PP); GST-tagged AIRE (PP), sheet Array Heatmap",0.3833
same,Array Heatmap signal (histone peptide microarray),"BAZ2B; GST-tagged BAZ2B, sheet Array Heatmap",0.4282
same,Array Heatmap signal (histone peptide microarray),"BPTF (PB); GST-tagged BPTF (PB = PHD + Bromodomain), sheet Array Heatmap",0.3314
same,Array Heatmap signal (histone peptide microarray),"CHD4 (PPCC); GST-tagged CHD4 (PPCC = Dual PHD + Dual Chromodomain), sheet Array Heatmap",0.511
same,Array Heatmap signal (histone peptide microarray),"CHD5 (PCC); GST-tagged CHD5 (PCC = PHD + Dual Chromodomain), sheet Array Heatmap",0.7194
same,Array Heatmap signal (histone peptide microarray),"CHD5 (PPCC); GST-tagged CHD5 (PPCC = Dual PHD + Dual Chromodomain), sheet Array Heatmap",0.5057
same,Array Heatmap signal (histone peptide microarray),"DIDO1; GST-tagged DIDO1, sheet Array Heatmap",0.6919
same,Array Heatmap signal (histone peptide microarray),"DPF2 (PPC2W2); GST-tagged DPF2 (PPC2W2 = Dual PHD + C2W2-type Zn-finger), sheet Array Heatmap",0.663
same,Array Heatmap signal (histone peptide microarray),"ING1; GST-tagged ING1, sheet Array Heatmap",0.5138
same,Array Heatmap signal (histone peptide microarray),"ING2; GST-tagged ING2, sheet Array Heatmap",0.6074
same,Array Heatmap signal (histone peptide microarray),"ING3; GST-tagged ING3, sheet Array Heatmap",0.4516
same,Array Heatmap signal (histone peptide microarray),"ING4; GST-tagged ING4, sheet Array Heatmap",0.4245
same,Array Heatmap signal (histone peptide microarray),"ING5; GST-tagged ING5, sheet Array Heatmap",0.3289
same,Array Heatmap signal (histone peptide microarray),"KDM4C (TTP); GST-tagged KDM4C (TTP = Tandem Tudor domain + PHD), sheet Array Heatmap",0.4265
same,Array Heatmap signal (histone peptide microarray),"KDM5A (1); GST-tagged KDM5A (1), sheet Array Heatmap",0.429
same,Array Heatmap signal (histone peptide microarray),"KDM5A (3); GST-tagged KDM5A (3), sheet Array Heatmap",0.4174
same,Array Heatmap signal (histone peptide microarray),"KDM5B (1); GST-tagged KDM5B (1), sheet Array Heatmap",0.5705
same,Array Heatmap signal (histone peptide microarray),"KDM5B (3); GST-tagged KDM5B (3), sheet Array Heatmap",0.4727
same,Array Heatmap signal (histone peptide microarray),"KDM7A; GST-tagged KDM7A, sheet Array Heatmap",0.3036
same,Array Heatmap signal (histone peptide microarray),"MLL5; GST-tagged MLL5, sheet Array Heatmap",0.5593
same,Array Heatmap signal (histone peptide microarray),"MORC3 (CW); GST-tagged MORC3 (CW = CW-type Zn-finger), sheet Array Heatmap",0.3459
same,Array Heatmap signal (histone peptide microarray),"PHF13; GST-tagged PHF13, sheet Array Heatmap",0.5951
same,Array Heatmap signal (histone peptide microarray),"PHF21A; GST-tagged PHF21A, sheet Array Heatmap",0.424
same,Array Heatmap signal (histone peptide microarray),"PHF23; GST-tagged PHF23, sheet Array Heatmap",0.5477
same,Array Heatmap signal (histone peptide microarray),"PHF2; GST-tagged PHF2, sheet Array Heatmap",0.603
same,Array Heatmap signal (histone peptide microarray),"PHF8; GST-tagged PHF8, sheet Array Heatmap",0.3449
same,Array Heatmap signal (histone peptide microarray),"PHRF1 (RP); GST-tagged PHRF1 (RP), sheet Array Heatmap",0.4419
same,Array Heatmap signal (histone peptide microarray),"RAG2; GST-tagged RAG2, sheet Array Heatmap",0.2316
same,Array Heatmap signal (histone peptide microarray),"SP140L; GST-tagged SP140L, sheet Array Heatmap",0.3065
same,Array Heatmap signal (histone peptide microarray),"TAF3; GST-tagged TAF3, sheet Array Heatmap",0.248
same,Array Heatmap signal (histone peptide microarray),"TRIM66 (PB); GST-tagged TRIM66 (PB = PHD + Bromodomain), sheet Array Heatmap",0.5857
H3K4me1 (1-21): H3 1-21,Array Heatmap value (peptide array signal),"AIRE (PP); AIRE (PP), sheet ""Array Heatmap""",0.4291
same,Array Heatmap value (peptide array signal),"BAZ2B; BAZ2B, sheet ""Array Heatmap""",0.4634
same,Array Heatmap value (peptide array signal),"BPTF (PB); BPTF (PB), sheet ""Array Heatmap""",0.3509
same,Array Heatmap value (peptide array signal),"CHD4 (PPCC); CHD4 (PPCC), sheet ""Array Heatmap""",0.5532
same,Array Heatmap value (peptide array signal),"CHD5 (PCC); CHD5 (PCC), sheet ""Array Heatmap""",0.76
same,Array Heatmap value (peptide array signal),"CHD5 (PPCC); CHD5 (PPCC), sheet ""Array Heatmap""",0.5364
same,Array Heatmap value (peptide array signal),"DIDO1; DIDO1, sheet ""Array Heatmap""",0.6834
same,Array Heatmap value (peptide array signal),"DPF2 (PPC2W2); DPF2 (PPC2W2), sheet ""Array Heatmap""",0.6848
same,Array Heatmap value (peptide array signal),"ING1; ING1, sheet ""Array Heatmap""",0.559
same,Array Heatmap value (peptide array signal),"ING2; ING2, sheet ""Array Heatmap""",0.622
same,Array Heatmap value (peptide array signal),"ING3; ING3, sheet ""Array Heatmap""",0.4698
same,Array Heatmap value (peptide array signal),"ING4; ING4, sheet ""Array Heatmap""",0.4485
same,Array Heatmap value (peptide array signal),"ING5; ING5, sheet ""Array Heatmap""",0.355
same,Array Heatmap value (peptide array signal),"KDM4C (TTP); KDM4C (TTP), sheet ""Array Heatmap""",0.468
same,Array Heatmap value (peptide array signal),"KDM5A (1); KDM5A (1), sheet ""Array Heatmap""",0.4646
same,Array Heatmap value (peptide array signal),"KDM5A (3); KDM5A (3), sheet ""Array Heatmap""",0.5345
same,Array Heatmap value (peptide array signal),"KDM5B (1); KDM5B (1), sheet ""Array Heatmap""",0.658
same,Array Heatmap value (peptide array signal),"KDM5B (3); KDM5B (3), sheet ""Array Heatmap""",0.4879
same,Array Heatmap value (peptide array signal),"KDM7A; KDM7A, sheet ""Array Heatmap""",0.3293
same,Array Heatmap value (peptide array signal),"MLL5; MLL5, sheet ""Array Heatmap""",0.5781
same,Array Heatmap value (peptide array signal),"MORC3 (CW); MORC3 (CW), sheet ""Array Heatmap""",0.4815
same,Array Heatmap value (peptide array signal),"PHF13; PHF13, sheet ""Array Heatmap""",0.6202
same,Array Heatmap value (peptide array signal),"PHF21A; PHF21A, sheet ""Array Heatmap""",0.4499
same,Array Heatmap value (peptide array signal),"PHF23; PHF23, sheet ""Array Heatmap""",0.5596
same,Array Heatmap value (peptide array signal),"PHF2; PHF2, sheet ""Array Heatmap""",0.5317
same,Array Heatmap value (peptide array signal),"PHF8; PHF8, sheet ""Array Heatmap""",0.3966
same,Array Heatmap value (peptide array signal),"PHRF1 (RP); PHRF1 (RP), sheet ""Array Heatmap""",0.5109
same,Array Heatmap value (peptide array signal),"RAG2; RAG2, sheet ""Array Heatmap""",0.2554
same,Array Heatmap value (peptide array signal),"SP140L; SP140L, sheet ""Array Heatmap""",0.3636
same,Array Heatmap value (peptide array signal),"TAF3; TAF3, sheet ""Array Heatmap""",0.2643
same,Array Heatmap value (peptide array signal),"TRIM66 (PB); TRIM66 (PB), sheet ""Array Heatmap""",0.5876

# Source: publication PMC6979384, “Characterization of the plant homeodomain (PHD) reader family for their histone tail interactions” (Epigenetics & Chromatin, 2020)
